Laboratory results published in US10617677B2, “Nuclear transport modulators and uses thereof” (Biogen MA Inc., priority 2012, dated 2020).
“Also recorded” adds a separate entry of the source.

Tests used:
[1] = tested on: BCCI injury to the medial frontal cortex; experiment: Bilateral controlled cortical impact (BCCI) injury in rats; format: in vivo
Procedure: Bilateral controlled cortical impact (BCCI) injury to the medial frontal cortex (MFC) of male Sprague Dawley rats was induced by a cortical contusion device. After CCI any cortical surface hemorrhaging was controlled, and the fascia and scalp were sutured. Sham-operated rats were anesthetized, mounted in the stereotaxic apparatus, and a craniotomy was performed.
Progesterone 16 mg/mL was dissolved in 22.5% 2-hydroxypropyl-β-cyclodextrin and the initial injection (16 mg/kg) was given i.p. 1 h after injury. The remaining injections (all 16 mg/kg) were given subcutaneously at 6 h post-injury and continued for 5 days after injury. Progesterone injections were made at a concentration of 1 mL/kg. Progesterone was used as a control.
Compound 1 0.2, 0.4, and 0.6 mg/mL was suspended in vehicle (0.6% w/v Pluronic® F-68 and 0.6% w/v PVP K-29/32 in water) and administered p.o at a concentration of 10 mL/kg, 16 h before injury and 2 h after injury, and administrations were continued for 4 days. Control rats received equivalent injections of the vehicle for Compound 1, at the same time points.
The Morris Water Maze (MWM) test is a spatial navigation task that measures learning and memory in rodents using visual cues. Subjects learn over the course of days to find a hidden platform. A MWM test was conducted two weeks after injury. Male Sprague Dawley rats were allowed to swim in the pool until they reached the platform located in the southwest quadrant of a tank, or until 90 seconds had elapsed. Behavior was tracked by a video camera hanging from above the pool and recorded and analyzed using video track software (ANY-maze).
The expression level of several cytokines in plasma harvested from rats in each treatment group was measured. The samples were received frozen and stored at −80° C. On the day of the experiment, the samples were thawed, diluted four-fold, and analyzed for cytokine expression on a Luminex platform. The samples were analyzed for the cytokines GRO/KC, IFNy, IL-1B, IL-6, IL-10, IL-12p70 and TNFa, using a multipliex kit manufactured by Millipore. […] The biggest change was in IL-10.
Quantitative measures of cell density were collected from anti-NeuN immunolabeled subsections from approximately 2-3 mm anterior to bregma. Regions of interest (ROIs) were drawn (blind to experimental condition) around Layers IV-VI in the cortical region adjacent to the injury site in CCI-treated animals or in the equivalent zone (dorsal cortex) in sham animals. An ROI of similar area was also evaluated in a ventral cortical region of the same section. Cell identification was performed using the cell counting module of Keyence BZ-II Analyzer software. Cell-to-gray matter (CG) area coefficients were determined for each ROI. […] The CCI-induced reduction in CG coefficient was mitigated by treatment with Compound 1 in the ventral cortex (−3% compared to sham; p=0.09). Although the effect of Compound 1 versus vehicle treatment in the ventral cortex is not statistically significant, it is anticipated that this effect would breach statistical significance in a larger study. No effect of Compound 1 was detected in the dorsal cortical region (−32% compared to sham) immediately adjacent to the injury site. The difference in the observed effect of Compound 1 on the ventral region versus the dorsal region may be a threshold effect related to the degree of injury, which was inversely related to the distance from the injury site. Thus, the damage to the dorsal cortical region could be too severe to be rescued by Compound 1 under these conditions.
Immunofluorescence was performed to evaluate the impact of TBI on several pathways of immune response, and to determine if Compound 1 might be mediating its neuroprotective effects via one or more of those pathways. […]

[2] = tested on: MOG-induced EAE; experiment: MOG-induced experimental autoimmune encephalomyelitis (EAE) murine model; format: in vivo, mice; settings: 7.5 mg/kg p.o. starting on study day 11, Monday, Wednesday and Friday
Procedure: The EAE Model is an accepted model for the study of human CNS demyelinating diseases such as multiple sclerosis. The effects of Compound 1 were investigated in MOG-induced in an EAE murine model in female C57B1/6J mice. […] Compound 1 at 7.5 mg/kg was administered orally starting from day 11 (disease onset) on Monday, Wednesday and Friday for 3 consecutive weeks. The disease was induced by the single intradermal injection of MOG emulsified in Complete Freund's Adjuvant (CFA) on study day 0, followed by intraperitoneal supplemental immunostimulation with pertussis toxin (PT) carried out on study day 0, and again 48 hours later on study day 2.

[3] = tested on: IMQ-induced psoriasis; experiment: Imiquimod (IMQ)-induced dermal inflammation/psoriasis model, Study 1; format: in vivo, mice; settings: 1 μM, Day 1 to Day 13 daily
Description: Forty (40) male BALB/c mice aged 6 to 8 weeks were used with a pretreatment body weight of 22 to 30 g. The BALB/c mice were randomized into four (4) groups of 10 mice per group. A small area (about 2×2 cm^2) of skin on the dorsum of all the animals was neatly shaved. Group-I animals served as Naïve animals. Psoriasis was induced in Groups II to IV [Group II (IMQ; vehicle), Group III (IMQ; […] Animals were observed daily for a period of 13 days for any treatment-related symptoms. The daily observations included body weight, feed intake, skin thickening, scaling, folding, erythema, nasal discharge, movement, respiration, hair, distended abdomen, skin condition, fur, mucous membrane, presence or absence of secretions, eye condition, tail elevation, motor activity, posture and gait. Severity of damage to the dorsal portion of the skin was assessed by assigning erythema, scaling, folding and skin thickening scores based on external observations of skin, according to rubric in Table 9. […] Compound 2 was prepared by dissolving 1.47 mg of Compound 2 in 300 μL of 100% DMSO.

[4] = tested on: Z-138 xenograft tumors; experiment: Z-138 lymphoma xenograft in SCID mice; format: in vivo
Procedure: Z-138 (ATCC # CRL-3001) mantle cell lymphoma cells were obtained from ATCC. These cells were grown in IMEM medium supplemented with 10% horse serum, 1% penicillin and streptomycin, and 2 mM L-glutamine. […] Twenty-four (24) female CB-17 SCID mice (Charles River Labs strain code 236), aged 5 to 6 weeks were used. The SCID mice were inoculated in the left flank with Z-138 cells in a volume of 0.2 mL, equivalent to 4×10^7 cells per mouse. […] Mice were allocated to […] prior to the initiation of treatment based on tumor volume such that mean tumor volume in each group was within the range of 77 to 92 mm^3. […] Animals were fed with Labdiet® 5001 rodent chow and sterile water ad libitum. […] Animals with weight loss of more than 20% of their starting weight were euthanized. Mice with weight loss of more than 15% of their starting weight were not treated again until weight loss recovered to less than 5% of their starting weight. Any animals with a tumor volume of more than 1500 mm^3 were euthanized. Dosing solutions were prepared fresh on each day of dosing. […] This was prepared by dissolving the lyophilized powder in sterile water.

Structure (SMILES)	plasma IL-10 ([1]; 6 mg/kg)	qualitative visual inspection of whole brains (damage to dorsal-medial cortical tissue) ([1]; 6 mg/kg)	latency to find the hidden platform (MWM test), significance ([1]; 6 mg/kg p.o.)	latency to find the hidden platform (MWM test) compared to vehicle-treated BCCI-injured rats ([1]; 2, 4 and 6 mg/kg p.o.)	cell-to-gray matter (CG) coefficient, NeuN labeling, compared to sham ([1]; dorsal cortical region adjacent to the injury site)	TNFα immunopositive cells in tissue surrounding the injury site ([1]; immunofluorescence)	secondary injury responses (Rat IgG and TNFα labeling) ([1]; immunofluorescence)	cell-to-gray matter (CG) coefficient, NeuN labeling, compared to sham ([1]; ventral cortex)	disease (clinical) score and severity [2]	body weight, food and water intake [3]	disease activity index / IMQ-induced disease manifestation [3]	weight loss ([4]; 15 mg/kg PO MWF)	tumor growth relative to vehicle (area under the growth curves, ANOVA) ([4]; Compound 2 15 or 7.5 mg/kg PO MWF, cyclophosphamide 80 mg/kg IP)
CC(C)(C)C(=O)NNC(=O)/C=C\n1cnc(-c2cc(C(F)(F)F)cc(C(F)(F)F)c2)n1 [Compound 1, (Z)-3-(3-(3,5-bis(trifluoromethyl)phenyl)-1H-1,2,4-triazol-1-yl)-N′-pivaloylacrylohydrazide]	reduced IL-10 compared to vehicle-treated control group	damage ranging from moderate to minimal	significant effects on days 17 and 18 after injury with 6 mg/kg	dose dependent decrease in the latency to find the hidden platform	−32%	largely absent	reduces secondary injury responses	−3%	significantly decreased disease score and severity; also recorded: decrease in disease score and severity	–	–	–	–
O=C(/C=C\n1cnc(-c2cc(C(F)(F)F)cc(C(F)(F)F)c2)n1)NNC(=O)CN1CCOCC1 [Compound 2, (Z)-3-(3-(3,5-bis(trifluoromethyl)phenyl)-1H-1,2,4-triazol-1-yl)-N′-(2-morpholinoacetyl)acrylohydrazide]	–	–	–	–	–	–	–	–	–	without adversely affecting body weight, food and water intake	diminished IMQ-induced disease manifestation; also recorded: reduction in disease activity index in comparison to the vehicle treated group	Some weight loss was observed	antitumor effect at both 7.5 mg/kg and 15 mg/kg doses in a dose dependent manner
